According to patent US12379386B2, “Antibodies to 25-hydroxyvitamin D2 and D3 for detecting total 25-hydroxyvitamin D” (Siemens Healthcare Diagnostics Inc., priority 2011, dated 2025):
Several values for one entry are separate records, joined by “and”; a condition that tells them apart may be missing. Identical values can stand only once.

Legend:
[1] = tested on: anti 25-hydroxy Vitamin D monoclonal antibody labeled with acridinium ester (monoclonal antibody 10H9); assay: Cross-reactivity in ADVIA Centaur Vitamin D Total assay; format: binding, mouse
Description: Biological sample is added to a reaction cuvette followed by displacement buffer and allowed to react for 4.5 minutes. Monoclonal antibody conjugated to acridinium ester is added and allowed to react for 5.5 minutes to bind 25-hydroxyvitamin D in the sample. […] The reaction cuvette is washed, and acid and base reagents are added to initiate the chemiluminescent reaction. The time-to-result is 18 minutes. An inverse relationship exists between the amount of 25-hydroxyvitamin D in the patient sample and the amount of relative light units (RLUs) detected by the system.
Assay: The ADVIA Centaur Vitamin D Total assay is a one-pass, 18-minute antibody competitive immunoassay that uses an antifluorescein-labeled monoclonal antibody covalently bound to paramagnetic particles (PMPs), one monoclonal antibody labeled with acridinium ester (AE), and a vitamin D analog labeled with fluorescein (FIG. 8). The Vitamin D Total assay requires 20 μL of sample volume for a single determination. The time-to-first-result is 18 minutes and the throughput is 240 tests/hour.
Briefly, the first step of the sequential step hapten/antibody competitive immunoassay using chemiluminescent technology begins with the analyzer dispensing 20 μL of biological sample into a cuvette followed by addition of 200 μl of displacement buffer (50 mM HEPES, 150 mM NaCl, 0.09% sodium azide, pH=7.5) containing 8-anilino-1-naphthalenesulfonic acid ammonium salt (Sigma-aldrich, St. Louis, MO) and ethylene glycol (Sigma-aldrich, St. Louis, MO) and incubation for 4.5 minutes at 37° C. Lite Reagent (50 μL) containing an anti 25-hydroxy Vitamin D monoclonal antibody labeled with acridinium ester (monoclonal antibody 10H9) is added to the mixture and incubated for 5.5 min at 37° C. C22-PEG-BSA-fluorescein conjugate (50 μL) and anti-fluorescein monoclonal antibody coated paramagnetic microparticles (100 μL) are added to the mixture and incubated for 3.75 minutes at 37° C. The fourth step is separation of Solid Phase complex with bound C22-PEG-BSA-fluorescein conjugate and anti 25-hydroxy vitamin D monoclonal antibody labeled with acridinium ester, followed by washing three times to remove any free Lite Reagent. Last is the sequential dispensing of 300 μL each of acid reagent then base reagent to initiate the chemiluminescent reaction. The total incubation time from sample to result is 18 minutes. There is an indirect relationship between the amount of 25-hydroxy vitamin D present in the biological sample and the amount of chemiluminescence quantified as relative light units (RLUs). In the Centaur-based assay, there is an inverse relationship between RLUs emitted by the acridinium ester and the amount of vitamin D because the 25-hydroxyvitamin D released from the carrier protein in the plasma competes with the Vitamin D-BSA-Fluorescein for binding with a limited amount of the acridinium-labeled 10H9 monoclonal antibody. Higher levels of 25(OH)D in the patient sample would lower the amount of the acridinium-MAb-VitD-BSA-Fluorescein complex on the magnetic particles resulting in lower RLUs.
Cross-reactivity: Five vitamin D derivatives were analyzed using the ADVIA Centaur Vitamin D Total assay. The vitamin D derivatives were spiked into a sample containing 27 ng/mL of vitamin D total. Three replicates of the spiked samples were assayed and the vitamin D total concentration determined.

BALB/c mice = assay: ELISA of sera from mice immunized with vitamin D-C22 BSA; format: in vivo, mouse; conditions: coat Vit D C22 Lc-BSA 500 ng/mL, individual mice 0-4 in c3-c7
Description: Experiments were conducted to produce antibodies that could preferentially bind to molecules having structural aspects of the vitamin D-C22 antigenic molecule. These experiments were conducted in accordance with the method of Galfre et al. (Nature, 266:550 (1977)), as modified by Oi and Herzenberg (Selected Methods in Cellular Immunology (1980)). Initially, BALB/c mice were immunized with vitamin D-C22 BSA emulsified in Freund's Complete adjuvant followed by a secondary immunization using Freund's Incomplete adjuvant. Sera of immunized mice were collected two weeks after the secondary immunization.
Collected sera were tested for antigen reactivity by ELISA as follows: microtiter plates coated with vitamin D-C22 BSA were incubated with mouse antisera, diluted in dilution buffer, for one hour. Plates were washed and a secondary antibody (goat-anti-mouse IgG) conjugated to horseradish peroxidase (HRPO) in dilution buffer was added and incubated for 30 minutes. Plates were washed and the colorimetric substrate 3,3′,5,5′-tetramethylbenzidine (TMB) was added. The generated color was stopped using 1N sulfuric acid and the optical density was measured at 450 nm.

[2] = crossreactant 100 ng/mL spiked, expected (endogenous) vitamin D total 27 ng/mL

Q: What does the source list for `C=C1CC[C@@H](O)C/C1=C/C=C1\CCC[C@]2(C)[C@@H]([C@H](C)CCCC(C)(C)O)CC[C@@H]12` [3-epi-25(OH)D3]?
A: Cross-reactivity (in words) [1]: very low cross-reactivity; Cross-reactivity [1, 2]: 0.0%

Q: Which results are given for `C=C1CC[C@H](O)C/C1=C/C=C1\CCC[C@]2(C)[C@@H]([C@H](C)/C=C/[C@H](C)C(C)(C)O)CC[C@@H]12` [25-(OH)-Vit D2, 25-hydroxyvitamin D2]?
A: Cross-reactivity ([1]; at 50 ng/mL): 105%; Cross-reactivity ([1]; crossreactant 30 ng/mL spiked, expected (endogenous) vitamin D total 27 ng/mL): 102%

Q: How did the Cross-reactivity ([1]; crossreactant 27 ng/mL, expected (endogenous) vitamin D total 0 ng/mL) turn out when `C=C1CC[C@H](O)C/C1=C/C=C1\CCC[C@]2(C)[C@@H]([C@H](C)CCCC(C)(C)O)CC[C@@H]12` [25-(OH)-Vit D3, 25-hydroxyvitamin D3] was run?
A: The Cross-reactivity was 100%.

Q: `C=C1CC[C@H](O)C/C1=C/C=C1\CCC[C@]2(C)[C@@H]([C@H](C)/C=C/[C@H](C)C(C)C)CC[C@@H]12` [Vitamin D2] was tested. Which “Cross-reactivity (in words)” value [1] did it give?
A: Its value is “very low cross-reactivity”.

Q: And the Cross-reactivity [1, 2]?
A: The Cross-reactivity was 0.04%.

Q: Which “Cross-reactivity (in words)” value [1] does the source give for `C=C1CC[C@H](O)C/C1=C/C=C1\CCC[C@]2(C)[C@@H]([C@H](C)CCCC(C)C)CC[C@@H]12` [Vitamin D3] here?
A: The value was “very low cross-reactivity”.

Q: And the Cross-reactivity [1, 2]?
A: Its Cross-reactivity is 0.04%.

Q: What does the source list for “vitamin D-C22 diaminobutane-suberoyl-BSA [Vit D C22]”?
A: optical density at 450 nm (BALB/c mice; serum dilution 1:100): 3.747 and 3.687 and 3.625 and 3.700 and 3.652; optical density at 450 nm (BALB/c mice; serum dilution 1:200): 3.750 and 3.693 and 3.649 and 3.663 and 3.634; optical density at 450 nm (BALB/c mice; serum dilution 1:400): 3.602 and 3.640 and 3.633 (2×) and 3.441; optical density at 450 nm (BALB/c mice; serum dilution 1:800): 3.634 and 3.731 and 3.603 and 3.708 and 3.696; optical density at 450 nm (BALB/c mice; serum dilution 1:1600): 3.578 and 3.605 and 3.532 and 3.638 and 3.687; optical density at 450 nm (BALB/c mice; serum dilution 1:3200): 3.534 and 3.508 and 3.171 and 3.454 and 3.608; optical density at 450 nm (BALB/c mice; serum dilution 1:6400): 3.177 and 3.133 and 2.533 and 3.057 and 3.473; optical density at 450 nm (BALB/c mice; serum dilution 1:12800): 2.449 and 2.406 and 1.731 and 2.325 and 3.042
